In patent US20150175655A1 (priority 2012, published 2015):

Each compound was assayed against T1, NS3 genotype 3a protease (UniProt Q81258) (assay: Ki determination, NS3 protease genotype 3a (fluorogenic depsipeptide substrate)). Conditions: 200 pM enzyme, 20 μM NS4A peptide, 2 μM substrate, read-out: Ki 3A.
T1 construct: Purified NS3 protease domain (amino acids 1-181) of the genotype 1b and 3a virus were generated as above; fused on or other part: N-terminal hexahistidine tag and rTEV protease cleavage site (vector p28-N6H-Tev-NS3(181)3)
T1 sequence (Q81258 1033-1663): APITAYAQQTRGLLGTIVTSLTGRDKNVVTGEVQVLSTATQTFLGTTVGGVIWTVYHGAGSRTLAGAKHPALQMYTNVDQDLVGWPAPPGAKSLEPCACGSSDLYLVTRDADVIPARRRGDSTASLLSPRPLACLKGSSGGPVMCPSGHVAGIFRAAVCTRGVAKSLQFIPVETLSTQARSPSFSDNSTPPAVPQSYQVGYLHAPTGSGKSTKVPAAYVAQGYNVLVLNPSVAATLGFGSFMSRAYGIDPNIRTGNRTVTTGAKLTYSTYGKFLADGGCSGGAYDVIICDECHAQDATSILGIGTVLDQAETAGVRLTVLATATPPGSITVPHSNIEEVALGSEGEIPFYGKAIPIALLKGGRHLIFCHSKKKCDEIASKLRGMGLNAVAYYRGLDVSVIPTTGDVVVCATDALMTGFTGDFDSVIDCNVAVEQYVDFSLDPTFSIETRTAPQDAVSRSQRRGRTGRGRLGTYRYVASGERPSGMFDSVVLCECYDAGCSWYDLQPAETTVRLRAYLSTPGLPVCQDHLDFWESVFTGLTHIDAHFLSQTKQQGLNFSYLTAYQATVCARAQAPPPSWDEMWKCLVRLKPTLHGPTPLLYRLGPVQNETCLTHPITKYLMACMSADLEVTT
Type: biochemical, hepatitis C virus
Source text: The coding sequences for the genotype 3 HCV protease domain was amplified by RT-PCR using a Titan One Tube RT-PCR Kit (Roche, Indianapolis, Ind.) and RNA extracted from HCV-positive human serum (BBI Diagnostics, MA) using a QIAmp UltraSens Virus Kit (Qiagen, Valencia, Calif.). 5′ PCR primers were designed to encode N-terminal hexahistidine tags and to insert in-frame rTEV protease cleavage sites into the NS3 protease coding sequences. The resulting DNA fragments were cloned into pET28 yielding the expression vectors p28-N6H-Tev-NS3(181)1a and p28-N6H-Tev-NS3(181)3, respectively.
BL21AI bacteria (Invitrogen, Carlsbad, Calif.) were transformed with genotype 1b or 3 NS3 expression vectors and used to inoculate a 20 L fermentation vessel (Sartorius BBI System Inc., Bethlehem, Pa.), containing 18 L of fresh 2YT medium supplemented with 50 μg/mL kanamycin. When cell densities reached an OD600 of 1, the temperature of the cultures was reduced from 37° C. to 28° C. and induction was immediately initiated by the addition of 30 μM ZnSO4, 14 mM L-arabinose and 1 mM Isopropyl β-D-thiogalactoside (IPTG) final concentrations. Cells were harvested by centrifugation four hours post-induction and were stored as frozen pellets at −80° C. prior to NS3 protein purification.
Bacterial pellets collected from the expression of genotype 3 HCV NS3 protease were homogenized in Lysis Buffer (25 mM tris, pH 7.5 buffer containing 150 mM NaCl and 1 mM phenylmethanesulfonyl fluoride (PMSF)) and passed through a microfluidizer at 18,000 pounds/in^2. Homogenized cell lysates were centrifuged at 30,000×g for 30 minutes at 4° C. The resulting P1 pellets were washed with Wash Buffer I (25 mM tris, pH 7.5 containing 1% CHAPS) followed by centrifugation at 10,000×g for 30 minutes at 4° C. […] The resulting P3 pellets were resuspended in Solubilization Buffer (20 ml of 25 mM tris, pH 7.5 containing 150 mM NaCl and 8 M urea) and incubated at 4° C. for one hour. Solubilized proteins were passed through a 0.45 micron filter. Protein concentrations were measured and the solutions were adjusted to 40 mM DTT, incubated for 30 minutes at 4° C. and then quickly diluted into Refolding Buffer (25 mM tris, pH 8.5, 0.8 M Guanidine-HCl, 0.4 M L-Arginine, 10 mM ZnSO4) while stirring. Protein solutions were incubated at 4° C. overnight to allow refolding. Refolded proteases were centrifuged at 30,000×g for 10 minutes to remove residual precipitates. Final protein concentrations were then measured and the NS3 proteases were aliquoted, snap frozen in liquid nitrogen and stored at −80° C.
Purified NS3 protease domain (amino acids 1-181) of the genotype 1b and 3a virus were generated as above. The internally quenched fluorogenic depsipeptide substrate Ac-DED(Edans)-EEAbuψ[COO]ASK(Dabcyl)-NH2 and a synthetic peptide containing the hydrophobic core residues of the NS4A protein cofactor ([…]; NS4A peptide) were obtained from Anaspec, Inc. (San Jose, Calif.). Other chemicals and biochemicals were of reagent grade or better and were purchased from standard suppliers.
Reactions were run at room temperature in buffer consisting of 50 mM HEPES, 40% glycerol, 0.05% Triton X-100, 10 mM DTT, and 10% DMSO. The final assay solutions contained 50 pM NS3 genotype 1b protease or 200 pM genotype 3a protease, 20 μM NS4A peptide, and 4 μM substrate (genotype 1 b) or 2 μM substrate (genotype 3a). Inhibitor concentrations varied from 100 nM to 5 pM in 3-fold dilutions, and no-inhibitor controls were included.
Compound dilutions were made in DMSO at 20× final concentration. Reaction mixtures were prepared in 96-well assay plates. A solution of enzyme and NS4A peptide in assay buffer (25 μL volume with both reagents at 4× final concentration) was mixed with 45 μL assay buffer and 5 μL of either inhibitor or DMSO, and pre-incubated at room temperature for 1 hour. The reaction was started by addition of 25 μL substrate solution at 4× final concentration. […]
`CC[C@@H]1[C@@H]2CN(C(=O)[C@H](C(C)(C)C)NC(=O)O[C@@H]3C[C@H]3CCCCC(F)(F)c3nc4ccccc4nc3O2)[C@@H]1C(=O)N[C@]1(C(=O)NS(=O)(=O)C2CC2)C[C@H]1C(F)F` [Example 53, (1aR,5S,8S,9S,10R,22aR)-5-tert-butyl-N-[(1R,2R)-1-[(cyclopropylsulfonyl)carbamoyl]-2-(difluoromethyl)cyclopropyl]-9-ethyl-18,18-difluoro-3,6-dioxo-1,1a,3,4,5,6,9,10,18,19,20,21,22,22a-tetradecahydro-8H-7,10-methanocyclopropa[18,19][1,10,3,6]dioxadiazacyclononadecino[11,12-b]quinoxaline-8-carboxamide] was tested, and the Ki was 90 pM.
`COc1ccc2nc3c(nc2c1)O[C@H]1CN(C(=O)[C@H](C(C)(C)C)NC(=O)O[C@@H]2C[C@@H]4C[C@@H]4[C@H]2CCCCC3(F)F)[C@H](C(=O)N[C@]2(C(=O)NS(=O)(=O)C3(C)CC3)C[C@H]2C(F)F)[C@@H]1C` [Example 81, (1aS,2aR,6S,9S,10S,11R,23aR,23bS)-6-tert-butyl-N-[(1R,2R)-2-(difluoromethyl)-1-{[(1-methylcyclopropyl)sulfonyl]carbamoyl}cyclopropyl]-19,19-difluoro-15-methoxy-10-methyl-4,7-dioxo-1a,2,2a,4,5,6,7,10,11,19,20,21,22,23,23a,23b-hexadecahydro-1H,9H-8,11-methanocyclopropa[4′,5′]cyclopenta[1′,2′:18,19][1,10,3,6]dioxadiazacyclononade cino[11,12-b]quinoxaline-9-carboxamide] was tested, and the Ki was 50 pM.
`COc1ccc2nc3c(nc2c1)O[C@H]1CN(C(=O)[C@H](C(C)(C)C)NC(=O)O[C@@H]2C[C@H]2CCCCC3)[C@H](C(=O)N[C@]2(C(=O)NS(=O)(=O)C3(C)CC3)C[C@H]2C(F)F)[C@@H]1CC#N` [Example 50, (1aR,5S,8S,9S,10R,22aR)-5-tert-butyl-9-(cyanomethyl)-N-[(1R,2R)-2-(difluoromethyl)-1-{[(1-methylcyclopropyl)sulfonyl]carbamoyl}cyclopropyl]-14-methoxy-3,6-dioxo-1,1a,3,4,5,6,9,10,18,19,20,21,22,22a-tetradecahydro-8H-7,10-methanocyclopropa[18,19][1,10,3,6]dioxadiazacyclononadecino[11,12-b]quinoxaline-8-carboxamide] was tested, and the Ki was > 100000 pM.
`CC[C@@H]1[C@@H]2CN(C(=O)[C@H](C(C)(C)C)NC(=O)O[C@@H]3C[C@H]3CCCCC(F)(F)c3nc4ccc(OC)cc4nc3O2)[C@@H]1C(=O)N[C@]1(C(=O)NS(=O)(=O)C2CC2)C[C@H]1CC` [Example 34, (1aR,5S,8S,9S,10R,22aR)-5-tert-butyl-N-{(1R,2R)-1-[(cyclopropylsulfonyl)carbamoyl]-2-ethylcyclopropyl}-9-ethyl-18,18-difluoro-14-methoxy-3,6-dioxo-1,1a,3,4,5,6,9,10,18,19,20,21,22,22a-tetradecahydro-8H-7,10-methanocyclopropa[18,19][1,10,3,6]dioxadiazacyclononadecino[11,12-b]quinoxaline-8-carboxamide] gave a Ki of 280 pM.
`CC[C@@H]1[C@@H]2CN(C(=O)[C@H](C(C)(C)C)NC(=O)O[C@@H]3C[C@H]3CCCCCc3nc4ccc(OC)cc4nc3O2)[C@@H]1C(=O)N[C@]1(C(=O)NS(=O)(=O)C2(C)CC2)C[C@H]1C` [Example 73, (1aR,5S,8S,9S,10R,22aR)-5-tert-butyl-9-ethyl-14-methoxy-N-[(1R,2R)-2-methyl-1-{[(1-methylcyclopropyl)sulfonyl]carbamoyl}cyclopropyl]-3,6-dioxo-1,1a,3,4,5,6,9,10,18,19,20,21,22,22a-tetradecahydro-8H-7,10-methanocyclopropa[18,19][1,10,3,6]dioxadiazacyclononadecino[11,12-b]quinoxaline-8-carboxamide] was tested, and the Ki was 820 pM.
Compound `CC[C@@H]1[C@@H]2CN(C(=O)[C@H](C(C)(C)C)NC(=O)O[C@@H]3CCC[C@H]3CCCCCc3nc4ccc(OC)cc4nc3O2)[C@@H]1C(=O)N[C@]1(C(=O)NS(=O)(=O)C2(C)CC2)C[C@H]1C(F)F` [Example 6, (3aR,7S,10S,11S,12R,24aR)-7-tert-butyl-N-[(1R,2R)-2-(difluoromethyl)-1-{[(1-methylcyclopropyl)sulfonyl]carbamoyl}cyclopropyl]-11-ethyl-16-methoxy-5,8-dioxo-1,2,3,3a,5,6,7,8,11,12,20,21,22,23,24,24a-hexadecahydro-10H-9,12-methanocyclopenta[18,19][1,10,3,6]dioxadiazacyclononadecino[11,12-b]quinoxaline-10-carboxamide] has a Ki of 620 pM.
`CC[C@@H]1[C@@H]2CN(C(=O)[C@H](C(C)(C)C)NC(=O)O[C@@H]3C[C@H]3CCCCCc3nc4ccc(OC)cc4nc3O2)[C@@H]1C(=O)N[C@]1(C(=O)NS(=O)(=O)C2(F)CC2)C[C@H]1C(F)F` [Example 74, (1aR,5S,8S,9S,10R,22aR)-5-tert-butyl-N-[(1R,2R)-2-(difluoromethyl)-1-{[(1-fluorocyclopropyl)sulfonyl]carbamoyl}cyclopropyl]-9-ethyl-14-methoxy-3,6-dioxo-1,1a,3,4,5,6,9,10,18,19,20,21,22,22a-tetradecahydro-8H-7,10-methanocyclopropa[18,19][1,10,3,6]dioxadiazacyclononadecino[11,12-b]quinoxaline-8-carboxamide] showed a Ki of 120 pM.

Same assay, conditions: read-out: Ki 3A, 200 pM enzyme, 20 μM NS4A peptide, 2 μM substrate
In the case of `C=C[C@@H]1C[C@]1(NC(=O)[C@@H]1[C@H](C)[C@@H]2CN1C(=O)[C@H](C(C)(C)C)NC(=O)O[C@@H]1C[C@H]1CCCCCc1nc3ccc(OC)cc3nc1O2)C(=O)NS(=O)(=O)C1CC1` [Example 48, (1aR,5S,8S,9S,10R,22aR)-5-tert-butyl-N-{(1R,2S)-1-[(cyclopropylsulfonyl)carbamoyl]-2-ethenylcyclopropyl}-14-methoxy-9-methyl-3,6-dioxo-1,1a,3,4,5,6,9,10,18,19,20,21,22,22a-tetradecahydro-8H-7,10-methanocyclopropa[18,19][1,10,3,6]dioxadiazacyclononadecino[11,12-b]quinoxaline-8-carboxamide], the Ki is reported as 90 pM.
